Reference: paper PMC13223435, “Synthesis and Antiproliferative Activity against Melanoma Cells of New Heterocyclic Hybrids Based on Pyridine and Pyrimidine Scaffolds” (Current Medicinal Chemistry, 2025)

What was measured:
[1] = system: A375 cells; assay: Annexin V-PE/7-AAD apoptosis assay (Muse); type: cell-based; conditions: 48 h, early and late apoptotic
Method: In this study, A375 cells were initially seeded into 24-well plates at a density of 1×10^4 cells per well. After 24 hours, the cell culture medium was carefully removed, and a new medium containing 16b and 29 at varying final concentrations (1, 5, and 10 µM) was added, followed by an additional 48-hour incubation. Cells in a medium containing 0.2% DMSO served as the control group. After the treatment period, cells were washed with phosphate-buffered saline (PBS), and both the cell medium and PBS wash were retained. The cells were then detached using trypsin and centrifuged. The resulting cell pellet was suspended in a fresh medium after discarding the supernatant. An equivalent volume of Muse Annexin V & Dead Cell Reagent (Luminex Corporation, Austin, TX, USA) was added and thoroughly mixed through repeated pipetting. The staining procedure was conducted for 20 minutes at room temperature in the absence of light. The Muse Cell Analyzer (Luminex Corporation, Austin, TX, USA) was utilized for analysis. This assay detects phosphatidylserine (PS) on apoptotic cell surfaces using annexin V-PE (phycoerythrin) binding. A 7-AAD (7-aminoactinomycin D) marker was used to assess cell membrane integrity. The dual staining approach enabled the identification of four distinct cell groups: viable (Annexin V-PE− and 7-AAD−), early apoptotic (Annexin V-PE+ and 7-AAD−), late apoptotic/dead (Annexin V-PE+ and 7-AAD+), and primarily nuclear debris (Annexin V-PE− and 7-AAD+). The findings were based on at least three separate experimental runs.

[2] = system: A375 cells; assay: Cell cycle analysis (PI staining, Muse); type: cell-based; conditions: 5 h
Method: For cell cycle analysis, A375 cells were initially plated in 6-well plates at a density of 1×10^5 cells per well and allowed to culture for 24 hours. Following this incubation period, the culture medium was replaced with fresh medium containing 16b and 29 at final concentrations of 1, 5, and 10 µM, after which the cells were incubated for an additional 5 hours. For control purposes, cells cultured in a medium containing 0.2% DMSO without treatment were utilized. The experimental procedure involved several steps: initially, the cells were rinsed with PBS, and then collected via trypsinization. The resulting cell pellet underwent another PBS wash before being fixed with 70% cold ethanol (Chempur, Piekary Śląskie, Polska) at -20°C for at least 3 hours. Before analysis, the ethanol-fixed cells were centrifuged, washed again with PBS, and then treated with Muse Cell Cycle Reagent (Luminex Corporation, Austin, TX, USA), which includes propidium iodide (PI) and RNAse. This staining process was carried out for 30 minutes at room temperature in the absence of light. The assay relies on PI-based staining of DNA content to differentiate and quantify the percentage of cells in the G0/G1, S, and G2/M phases of the cell cycle. The analysis was performed using the Muse Cell Analyzer (Luminex Corporation, Austin, TX, USA). The obtained findings were derived from a minimum of three independent experiments.

## COc1cc(Cn2cc(-c3cccs3)ccc2=S)cc(OC)c1OC [Compound 16b]
[1]; 5 µM
  percentage of annexin-positive cells: 18.43 ± 2.90%
[1]; 10 µM
  percentage of annexin-positive cells: 30.50 ± 1.27%
[2]; 1 µM
  percentage of A375 cells in the G2/M phase: 33.79 ± 0.46%
[2]; 5 µM
  percentage of A375 cells in the G2/M phase: 39.33 ± 5.27%
[2]; 10 µM
  percentage of A375 cells in the G2/M phase: 44.52 ± 4.00%
